Test: Phase 3 randomized, double-blind, placebo- and active-controlled trial of meloxicam/rizatriptan in acute treatment of migraine (Example 1, MOMENTUM)
[1] = treatment-emergent adverse event

## CN(C)CCc1c[nH]c2ccc(Cn3cncn3)cc12 [Rizatriptan]
[…] after dosing, single dose
  proportion of patients experiencing pain relief: 52.5%
From 2 hours to 24 hours after dosing
  percentage of patients experiencing sustained pain relief: 43.9%
From 2 hours to 48 hours
  proportion of patients with sustained pain freedom: 8.8%
Single dose
  Any Treatment-Emergent Adverse Event, number of subjects: 67 subjects
[1]
  Dizziness, % of subjects: 2.1%
  Dizziness, number of subjects: 9 subjects
  Nausea, % of subjects: 4.8%
  Nausea, number of subjects: 21 subjects
  Somnolence, % of subjects: 2.1%
  Somnolence, number of subjects: 9 subjects

Source: US20250195534A1 (AXSOME THERAPEUTICS, INC., priority 2022, published 2025)
